According to US20160046616A1, “NRF2 SMALL MOLECULE INHIBITORS FOR CANCER THERAPY” (THE JOHNS HOPKINS UNIVERSITY, priority 2013, published 2016):

Key:
[1] = system: H1437 NRF2-ARE-Fluc stable cell line; assay: H1437 Nrf2 assay: NRF2-ARE firefly luciferase reporter gene assay; assay type: cell-based; conditions: Homo sapiens, NCI-H1437, H1437 NRF2-ARE-Fluc stable cell line; read-out: Potency of inhibition, H1437
[2] = system: A549 NRF2-ARE-Fluc stable cell line; assay: A549 Nrf2 assay: NRF2-ARE firefly luciferase reporter gene assay; assay type: cell-based; conditions: Homo sapiens, read-out: Potency of inhibition, A549
Outline: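 A549 cells (Keap1 loss-of-function, constitutive NRF2) stably carrying ARE-driven firefly luciferase; compound treatment 18–24 h at 37 °C, 0.46% DMSO final.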

IC50 [1] [µM]	IC50 [2] [µM]	SMILES
5 to 25	5 to 25	CC(=O)N1CCN(CC(=O)Nc2nc(-c3ccc4c(c3)CCN4C(=O)c3ccccc3C)c(C)s2)CC1 [Compound 227]
< 5	< 5	CCOC(=O)N1CCN(CC(=O)Nc2nc(-c3ccc4c(c3)CCN4C(=O)c3ccccc3C)c(C)s2)CC1 [Compound 228]
< 5	< 5	Cc1ccccc1C(=O)N1CCc2cc(-c3nc(NC(=O)CN4CCN(c5ccccc5)CC4)sc3C)ccc21 [Compound 229]
< 5	< 5	CC1c2ccccc2CCN1Cc1ccc(C(=O)Nc2ccc(S(=O)(=O)N3CCOCC3)cc2)cc1 (stereo not shown) [Compound 230]
< 5	5 to 25	O=C(Nc1ncc(Cc2ccc(C(F)(F)F)cc2)s1)c1ccn(CCN2CCOCC2)n1 [Compound 231]
5 to 25	5 to 25	COc1ccc(CC(=O)Nc2nc(-c3ccc4c(c3)CC(C)N4C(=O)c3ccccc3C)c(C)s2)cc1 (stereo not shown) [Compound 232]
5 to 25	5 to 25	COc1ccc(CC(=O)Nc2nc(-c3ccc4c(c3)CCN4C(=O)c3ccc(C4(C(F)(F)F)N=N4)cc3)c(C)s2)cc1 [Compound 233]
5 to 25	5 to 25	Cc1ccccc1C(=O)N1CCc2cc(-c3nc(NC(=O)Cc4cccc(O)c4)sc3C)ccc21 [Compound 234, 2-(3-hydroxyphenyl)-N-(5-methyl-4-(1-(2-methylbenzoyl)indolin-5-yl)thiazol-2-yl)acetamide]
5 to 25	5 to 25	Cc1ccccc1C(=O)N1CCc2cc(-c3nc(NC(=O)Cc4ccc(O)cc4)sc3C)ccc21 [Compound 235, 2-(4-hydroxyphenyl)-N-(5-methyl-4-(1-(2-methylbenzoyl)indolin-5-yl)thiazol-2-yl)acetamide]
< 5	< 5	Cc1ccccc1C(=O)N1CCc2cc(-c3nc(NC(=O)Cc4ccc(OCCOCCOCCNC(=O)OC(C)(C)C)cc4)sc3C)ccc21 [Compound 236, tert-butyl (2-(2-(2-(4-(2-((5-methyl-4-(1-(2-methylbenzoyl)indolin-5-yl)thiazol-2-yl)amino)-2-oxoethyl)phenoxy)ethoxy)ethoxy)ethyl)carbamate]
< 5	< 5	Cc1ccccc1C(=O)N1CCc2cc(-c3nc(NC(=O)Cc4cccc(OCCOCCOCCNC(=O)OC(C)(C)C)c4)sc3C)ccc21 [Compound 237, tert-butyl (2-(2-(2-(3-(2-((5-methyl-4-(1-(2-methylbenzoyl)indolin-5-yl)thiazol-2-yl)amino)-2-oxoethyl)phenoxy)ethoxy)ethoxy)ethyl)carbamate]
5 to 25	5 to 25	Cc1ccccc1C(=O)N1CCc2cc(-c3nc(NC(=O)Cc4cccc(OCCOCCOCCN)c4)sc3C)ccc21 [Compound 238, 2-(3-(2-(2-(2-aminoethoxy)ethoxy)ethoxy)phenyl)-N-(5-methyl-4-(1-(2-methylbenzoyl)indolin-5-yl)thiazol-2-yl)acetamide]
5 to 25	> 25	Cc1ccccc1C(=O)N1CCc2cc(-c3nc(NC(=O)Cc4ccc(OCCOCCOCCN)cc4)sc3C)ccc21 [Compound 239, 2-(4-(2-(2-(2-aminoethoxy)ethoxy)ethoxy)phenyl)-N-(5-methyl-4-(1-(2-methylbenzoyl)indolin-5-yl)thiazol-2-yl)acetamide]
< 5	5 to 25	Cc1ccccc1C(=O)N1CCc2cc(-c3nc(NC(=O)Cc4cccc(OCCOCCOCCNC(=O)CCCC[C@@H]5SC[C@@H]6NC(=O)N[C@@H]65)c4)sc3C)ccc21 [Compound 240]
5 to 25	> 25	Cc1ccccc1C(=O)N1CCc2cc(-c3nc(NC(=O)Cc4ccc(OCCOCCOCCNC(=O)CCCC[C@@H]5SC[C@@H]6NC(=O)N[C@@H]65)cc4)sc3C)ccc21 [Compound 241]
> 25	5 to 25	Cc1ccc(C(=O)Nc2ccc(S(=O)(=O)N3CCOCC3)cc2)cc1 [compound 51]
< 5	< 5	CC1(C)CC2CC(C)(CN2S(=O)(=O)c2ccc(C(=O)Nc3cccc(S(=O)(=O)N4CCOCC4)c3)cc2)C1 (stereo not shown) [compound 52]
5 to 25	< 5	CC1(C)CC2CC(C)(CN2S(=O)(=O)c2ccc(C(=O)Nc3ccc(Cl)cc3)cc2)C1 (stereo not shown) [compound 53]
< 5	< 5	O=C(Nc1ccc(Cl)c(S(=O)(=O)N2CCOCC2)c1)c1ccc(S(=O)(=O)N2CCCCC2)cc1 [compound 54]
< 5	< 5	O=C(Nc1ccc(Cl)c(S(=O)(=O)N2CCOCC2)c1)c1ccc(S(=O)(=O)N2CCOCC2)cc1 [compound 55]
> 25	5 to 25	O=C(Nc1cccc(S(=O)(=O)N2CCOCC2)c1)c1ccc(CN2CCc3ccccc3C2)cc1 [compound 119]
< 5	< 5	CC(C)(C)OC(=O)N1CCN(S(=O)(=O)c2ccc(NC(=O)c3ccc(CN4CCc5ccccc5C4)cc3)cc2)CC1 [compound 144]
> 25	< 5	O=C(Nc1ccc(S(=O)(=O)N2CCCC2)cc1)c1ccc(CN2CCc3ccccc3C2)cc1 [compound 145]
> 25	< 5	CN1CCN(S(=O)(=O)c2ccc(NC(=O)c3ccc(CN4CCc5ccccc5C4)cc3)cc2)CC1 [compound 146]

IC50 [1] [µM]	IC50 [2] [µM]	SMILES
> 25	5 to 25	O=C(Nc1ccc(C(=O)N2CCOCC2)cc1)c1ccc(CN2CCc3ccccc3C2)cc1 [compound 147]
> 25	< 5	CN(C)[S+](=O)([O-])c1ccc(NC(=O)c2ccc(CN3CCc4ccccc4C3)cc2)cc1 [compound 148]
> 25	< 5	O=C(Nc1ccc(N2CCOCC2)cc1)c1ccc(CN2CCc3ccccc3C2)cc1 [compound 149]
< 5	< 5	O=C(Nc1ccc(S(=O)(=O)N2CCOCC2)cc1)c1ccc(N2CCc3ccccc3C2)cc1 [compound 152]
< 5	< 5	CCN(CC)S(=O)(=O)c1ccc(NC(=O)c2ccc(CN3CCc4ccccc4C3)cc2)cc1 [compound 153]
> 25	5 to 25	O=C(Nc1ccc(S(=O)(=O)N2CCNCC2)cc1)c1ccc(CN2CCc3ccccc3C2)cc1 [compound 154]
< 5	< 5	CC1CN(S(=O)(=O)c2ccc(NC(=O)c3ccc(CN4CCc5ccccc5C4)cc3)cc2)CC(C)O1 (stereo not shown) [compound 155]
> 25	> 25	O=C(Nc1ccc([S+](=O)([O-])O)cc1)c1ccc(CN2CCc3ccccc3C2)cc1 [compound 156]
> 25	< 5	O=C(Nc1ccc(CN2CCOCC2)cc1)c1ccc(CN2CCc3ccccc3C2)cc1 [compound 163]
5 to 25	< 5	O=C(Nc1ccc(S(=O)(=O)N2CCOCC2c2ccccc2)cc1)c1ccc(CN2CCc3ccccc3C2)cc1 (stereo not shown) [compound 165]
5 to 25	< 5	O=C(Nc1ccc(S(=O)(=O)N2CCOCC2)cc1)c1ccc(CCN2CCc3ccccc3C2)cc1 [compound 166]
5 to 25	< 5	CN(C1CCOCC1)S(=O)(=O)c1ccc(NC(=O)c2ccc(CN3CCc4ccccc4C3)cc2)cc1 [compound 167]
< 5	< 5	CN(Cc1ccccc1)Cc1ccc(C(=O)Nc2ccc(S(=O)(=O)N3CCOCC3)cc2)cc1 [compound 168]
< 5	< 5	CC1CN(S(=O)(=O)c2ccc(NC(=O)c3ccc(CN4CCc5ccccc5C4)cc3)cc2)CCO1 (stereo not shown) [compound 169]
> 25	< 5	O=C(Nc1ccc(S(=O)(=O)N2CCOC(c3ccccc3)C2)cc1)c1ccc(CN2CCc3ccccc3C2)cc1 (stereo not shown) [compound 171]
< 5	< 5	O=C(Nc1ccc(S(=O)(=O)N2CCOCC2)cc1)c1ccc(CN2CCCc3ccccc32)cc1 [compound 172]
< 5	< 5	CN(C1COC1)S(=O)(=O)c1ccc(NC(=O)c2ccc(CN3CCc4ccccc4C3)cc2)cc1 [compound 173]
> 25	< 5	COCCN(C)S(=O)(=O)c1ccc(NC(=O)c2ccc(CN3CCc4ccccc4C3)cc2)cc1 [compound 174]
5 to 25	< 5	O=C(Nc1ccc(S(=O)(=O)NC2CCOCC2)cc1)c1ccc(CN2CCc3ccccc3C2)cc1 [compound 176]
< 5	< 5	O=C(Nc1ccc(OC(F)(F)F)cc1)c1ccc(CN2CCc3ccccc3C2)cc1 [compound 178]
> 25	5 to 25	O=C(Nc1ccc(S(=O)(=O)N2CCOCC2)cc1)c1ccc(CN2CCCCC2)cc1 [compound 179]
< 5	< 5	O=C(Nc1ccc(S(=O)(=O)N2CCC(F)(F)CC2)cc1)c1ccc(CN2CCc3ccccc3C2)cc1 [compound 188]
> 25	5 to 25	CN(C(=O)c1ccc(CN2CCc3ccccc3C2)cc1)c1ccc(S(=O)(=O)N2CCOCC2)cc1 [compound 225]
< 5	< 5	CC(c1ccc(C(=O)Nc2ccc(S(=O)(=O)N3CCOCC3)cc2)cc1)N1CCc2ccccc2C1 (stereo not shown) [compound 226]

SMILES	IC50 [1] [µM]	IC50 [2] [µM]
O=C(Nc1ccc(Cl)c(S(=O)(=O)N2CCOCC2)c1)c1ccccc1 [compound 62]	5 to 25	5 to 25
O=C(Nc1ccccc1)c1ccc(CN2CCc3ccccc3C2)cc1 [compound 143]	> 25	5 to 25
